For data set [1], the system named is 3 tumour cells HCT-8, SKVO3, MCF-7 (3种肿瘤细胞). As to the kind of experiment: MTT assay of cell proliferation, tumour cells (24 h). It counts as cell-based. The note with it: for inhibitory effect on the 3 tumour cells: HCT-8, SKVO3, MCF-7, 24 h, in words (IC50 table is a picture); for killing effect on / toxicity to various tumour cells: summary statement. Background: Tetrazolium dyes change colour on reduction, which living cells bring about.

A further data set concerns HK2 cells (人肾小管上皮细胞). Description: MTT assay of cell proliferation, normal cells HK2 (24 h). The note with it: for toxicity / side effect on HK2: in words; for toxicity to normal cells: summary statement. It counts as cell-based, human.
Another data set deals with tumour (肿瘤). The note with it: background statement on LL37; cited from earlier work.
Another data set has as its system normal cells (正常细胞). As to conditions: background statement on LL37; cited from earlier work.
The test system of data set [2] is HCT-8 cells. Description: HCT-8 apoptosis, Annexin V-FITC/PI flow cytometry (24 h). It counts as cell-based, human. As to conditions: for concentration dependence of apoptosis / average apoptosis rate / early apoptosis: HCT-8, 24 h; for early apoptosis: versus control.
For data set [3], the system named is HCT-8 cells. As to the kind of experiment: HCT-8 mitochondrial membrane potential, JC-1 flow cytometry (24 h). The note with it: HCT-8, 24 h; for mitochondrial membrane potential: with rising concentration (0-4 μM), versus control, P<0.01. The format is cell-based, human. A general note: In flow cytometry, cells or beads pass a laser one at a time.
The test system of data set [4] is HCT-8 cells. As to the kind of experiment: ROS in HCT-8 cells, DCFH-DA flow cytometry (24 h). The format is cell-based, human. As to conditions: HCT-8, 24 h; for ROS content compared with control: P>0.05.
Data set [5] can be described thus: Earlier antibacterial test. As to conditions: initial tests.
Data set [6] relates to HCT-8 cells. Description: MTT assay of cell proliferation, HCT-8 (therapeutic index). It counts as cell-based, human. As to conditions: in words.

In the case of “LL37: LL37是hCAP-18蛋白中含有37个氨基酸的C端 [reference compound]”, the “inhibitory effect on the 3 tumour cells” value in [1] is given as “抑制效果均表现较好”. Moreover, the “toxicity / side effect on HK2” value in the data set with HK2 cells (人肾小管上皮细胞) (HK2, 24 h) is reported as “毒副作用也很明显”. In the data set on tumour (肿瘤), the antitumour effect entry is given as “良好的抗肿瘤效应”. The “toxicity to normal cells” value in the data set on normal cells (正常细胞) is on record as “对正常细胞的毒性较大”.

Regarding RL25: 氨基酸序列为:RLNRLFRKIRQVIRKFEKGIKEKSK, the “therapeutic index, IC50(HK2)/IC50(tumour cells)” value in data set [1] (3 tumour cells, in words) is “较高”. In addition, the “therapeutic index compared with SE37” value in [1] (3 tumour cells, versus SE37) is “均高于SE37的治疗指数”. Besides, the “inhibitory effect on tumour cells compared with LL37” value in [1] (3 tumour cells, versus positive drug LL37) is recorded as “相近或更好”. Besides, the “inhibitory effect on the 3 tumour cells” value in [1] is given as “很好的抑制效果”. Further, the “killing effect on / toxicity to various tumour cells” value in data set [1] is “良好的杀伤效果”. For the same substance, in the data set with HK2 cells (人肾小管上皮细胞) (HK2, 24 h), the “toxicity / side effect on HK2” value is reported as “对正常细胞的毒性小”. Moreover, in the data set with HK2 cells (人肾小管上皮细胞) (HK2, 24 h, versus positive drug LL37), the “toxicity to normal cells compared with LL37” value is on record as “毒性明显更小”. The “toxicity to normal cells” value with HK2 cells (人肾小管上皮细胞) was “毒性轻微”. Also, the “concentration dependence of apoptosis” value with HCT-8 cells [2] is recorded as “明显的浓度依赖性”. Also, the results for the average apoptosis rate in the data set on HCT-8 cells [2] (1 μM), in the data set with HCT-8 cells [2] (2 μM) and in the data set on HCT-8 cells [2] (4 μM) were 29.56%, 37.44% and 55.15%, respectively. Besides, in the data set on HCT-8 cells [2], the early apoptosis entry is given as “早期凋亡细胞的数目逐渐增加”. Also, the “killing effect compared with SE37” value with HCT-8 cells [2] (HCT-8, 4 μM RL25 versus 6 μM SE37) was “强于浓度为6μM的SE37”. The mitochondrial membrane potential entry in the data set on HCT-8 cells [3] is recorded as “逐渐降低”. Moreover, the “ROS content, trend” value in the data set with HCT-8 cells [4] (0-4 μM) was “先升高后降低”. Moreover, the “ROS content compared with control” value in the data set with HCT-8 cells [4] (4 μM) is on record as “无明显差异”. The “ROS, mean fluorescence intensity (peak)” value with HCT-8 cells [4] (peak at 1 μM, versus control P<0.01) is given as 4670±91.804. Moreover, the antibacterial performance result in data set [5] was “较好的抑菌性能”. For the same substance, the “therapeutic index, IC50(HK2)/IC50(HCT-8)” value in the data set on HCT-8 cells [6] is on record as “较高”.

In the case of “SE37: 抗菌肽SE37(其氨基酸序列为:SETRPVLNRLFDKIRQVIRKFEKGIKEKSKRFFDGLL) [reference compound]”, in [1], the “inhibitory effect on the 3 tumour cells” value is “抑制效果均表现较好” and the “killing effect on / toxicity to various tumour cells” value is recorded as “毒性均较大”. Further, the “toxicity / side effect on HK2” value with HK2 cells (人肾小管上皮细胞) (HK2, 24 h) was “毒副作用也很明显”. The “toxicity to normal cells” value in the data set with HK2 cells (人肾小管上皮细胞) is “毒性均较大”. Further, in the data set with HCT-8 cells [2], the “concentration dependence of apoptosis” value is reported as “一定的浓度依赖性” and the early apoptosis result is “出现明显的早期细胞凋亡”. The average apoptosis rate with HCT-8 cells [2] (3 μM) is 27.39%. The same substance gave an average apoptosis rate in the data set on HCT-8 cells [2] (6 μM) of 36.28%. In the data set on HCT-8 cells [3] (0-4 μM), the FL1 channel fluorescence entry was “荧光增多” and the FL2 channel fluorescence entry was “荧光减少”. Moreover, the “FL1 channel fluorescence signal” value in the data set on HCT-8 cells [3] (4 μM versus 2 μM) is given as “并未明显增加”. The mitochondrial membrane potential entry in the data set on HCT-8 cells [3] is given as “明显降低”. The “ROS content, trend” value in the data set with HCT-8 cells [4] (0-8 μM) is “先升高后降低”. In addition, the “ROS content compared with control” value in the data set with HCT-8 cells [4] (8 μM) is reported as “已无明显变化”. In addition, in the data set on HCT-8 cells [4] (peak at 2 μM), the “ROS, mean fluorescence intensity (peak)” value is given as 3127.753±96.501.

Source of the values: CN111729074A, “多肽rl25在制备抗肿瘤药物中的应用” (Zhuhai Campus Of Zunyi Medical University, priority 2020, dated 2020).
